The results in this text go back to ChEMBL document CHEMBL1201862, “PubChem BioAssay data set” (2004).

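Five compound concentrations were applied to cells in 96-well plates for 48 hours; endpoints were derived by simple linear interpolation of the resulting dose-response curve. GI50 is the concentration that inhibits growth by half.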 The source made the active and inactive calls. Cut-off read from the data, not from the text of the source: active = GI50 up to about 1.1 µM and inactive = higher. Some results are limits rather than exact numbers.

Some test systems named below: DMS-273; DMS-114; XF498; SNB-78; RXF 631; LXFL 529; DLD-1; HOP-18; BT-549.
Common to all, as to assay: NCI-60 cell line screen, 48 h

For `CCCCCCCCCCCCCCCCCC(=O)NCC(COP(=O)(O)O)OCC` (stereo not given), the GI50 in the experiment on DMS-273 was 77.1 µM (inactive); in the experiment with DMS-114, 33.6 µM (inactive); with XF498, 51.8 µM (inactive); with SNB-78 it was 22.5 µM (inactive); with RXF 631 it was 25.8 µM (inactive); in the experiment with LXFL 529 it was > 100 µM (inactive). Further, the GI50 in the experiment on DLD-1 is > 100 µM (inactive).

Regarding `c1coc(CNc2[nH]cnc3nncc2-3)c1`, the GI50 in the experiment with DMS-273 was > 100 µM (inactive); in the experiment on DMS-114, 44.5 µM (inactive); in the experiment on XF498 it was > 100 µM (inactive); with SNB-78, > 100 µM (inactive); in the experiment on RXF 631, > 100 µM (inactive); in the experiment with LXFL 529 it was > 100 µM (inactive). Also, in the experiment with DLD-1, the GI50 was > 100 µM (inactive).

For `COc1ccc(/C=C/C(=O)c2sc(Nc3ccc([N+](=O)[O-])cc3)nc2C)cc1`, the GI50 was 41.1 µM (inactive) in the experiment with DMS-273; 31.3 µM (inactive) with DMS-114; 46.2 µM (inactive) in the experiment with SNB-78; 34.2 µM (inactive) with RXF 631; 78.2 µM (inactive) in the experiment with HOP-18; 29.1 µM (inactive) in the experiment with DLD-1.

As to `Cn1c(CBr)nc2c1C(=O)c1nc(CBr)[nH]c(=O)c1C2=O`, the GI50 is > 100 µM (inactive) with DMS-114; > 100 µM (inactive) with RXF 631; > 100 µM (inactive) in the experiment with HOP-18; 53.7 µM (inactive) in the experiment with LXFL 529; > 100 µM (inactive) in the experiment on DLD-1.

Consider `C#CCN(N=O)C(=O)NCCCC(NC(C)=O)C(=O)NCc1ccccc1` (stereo not given), for which the GI50 was > 100 µM (inactive) in the experiment on DMS-114; 0.0526 µM (active) with XF498; > 100 µM (inactive) in the experiment on SNB-78; > 100 µM (inactive) in the experiment on RXF 631; > 100 µM (inactive) with HOP-18; > 100 µM (inactive) with LXFL 529. Moreover, in the experiment on DLD-1, the GI50 is > 100 µM (inactive).

On to `CCCCCCCC(=O)OC(CBr)COC(=O)C(C)(C)C` (stereo not given), for which the GI50 in the experiment on DMS-273 is > 84.5 µM (inactive); with DMS-114 it was > 77.1 µM (inactive); in the experiment on XF498, > 100 µM (inactive); in the experiment with SNB-78 it was > 100 µM (inactive); in the experiment on RXF 631, > 100 µM (inactive); in the experiment with HOP-18, > 100 µM (inactive). In addition, the GI50 with LXFL 529 and in the experiment on DLD-1 was > 100 µM (inactive) throughout.

As for `O=[N+]([O-])c1cccc2nc3ccccc3c(NCCN(CCO)CCO)c12`, the GI50 was 0.012 µM (active) in the experiment on DMS-273; 3.08 nM (active) in the experiment with BT-549; 0.00512 µM (active) with XF498; 0.0221 µM (active) with SNB-78; 0.00457 µM (active) in the experiment on RXF 631; 0.0443 µM (active) in the experiment on HOP-18. Besides, the values for the GI50 with LXFL 529 and in the experiment on DLD-1 were 0.0187 µM (active) and 0.0069 µM (active), respectively.

As to `COc1ccc(/C=C2\CCC(CN(C)C)C2=O)cc1OC` (stereo not given), the GI50 in the experiment on DMS-273 was 14.4 µM (inactive); in the experiment on BT-549, 5430 nM (inactive); in the experiment on DMS-114, 12.5 µM (inactive); with XF498, 13.5 µM (inactive); in the experiment on SNB-78, 17.5 µM (inactive); with RXF 631, 6.84 µM (inactive). Besides, the GI50 in the experiment with HOP-18 was 20.8 µM (inactive); in the experiment with LXFL 529, 2.43 µM (inactive); with DLD-1 it was 2.69 µM (inactive).

`O=S(=O)(O)c1ccc(/N=N/c2nc(C(F)(F)F)c(C(F)(F)F)[nH]2)cc1`: the GI50 in the experiment with DMS-273 is > 100 µM (inactive); with DMS-114, 16.8 µM (inactive); in the experiment on XF498, 17.2 µM (inactive); with SNB-78 it was 96.2 µM (inactive); in the experiment on RXF 631, 30.8 µM (inactive); with HOP-18, 25.5 µM (inactive). Further, the GI50 was 87.3 µM (inactive) in the experiment on LXFL 529 and 43.5 µM (inactive) in the experiment with DLD-1.

As for `O=C1C=C(Br)C(=O)C(Br)=C1`, the GI50 was > 100 µM (inactive) in the experiment with DMS-273; > 72.4 µM (inactive) with DMS-114; > 100 µM (inactive) in the experiment on XF498; > 100 µM (inactive) with SNB-78; > 100 µM (inactive) in the experiment with RXF 631; > 100 µM (inactive) in the experiment on HOP-18. Also, the GI50 with LXFL 529 is 54.5 µM (inactive); with DLD-1, > 96.6 µM (inactive).

For the compound `COc1cc2c(cc1C1=NC(C)(C)CO1)OCO2`, the GI50 in the experiment with DMS-114, in the experiment on XF498, with RXF 631, in the experiment with HOP-18, in the experiment on LXFL 529 and in the experiment with DLD-1 was > 100 µM (inactive) in each case.

Regarding `CN1S(=O)(=O)N(C)P12(N=P(CP(=NP13(N(C)S(=O)(=O)N1C)N(C)S(=O)(=O)N3C)(c1ccccc1)c1ccccc1)(c1ccccc1)c1ccccc1)N(C)S(=O)(=O)N2C`, the GI50 with DMS-273, with DMS-114, with XF498, in the experiment with SNB-78, in the experiment on RXF 631 and in the experiment with HOP-18 was > 100 µM (inactive) in each case. Also, the GI50 in the experiment with LXFL 529 and with DLD-1 was > 100 µM (inactive) in each case.

As for `C=CC[P@@]1(=O)O[C@H](c2ccccc2)C(C)N1C(C)C` (stereo not given in full), the GI50 with DMS-273, with DMS-114, with XF498, in the experiment with SNB-78, in the experiment with RXF 631 and in the experiment with HOP-18 was > 100 µM (inactive) throughout. In addition, the GI50 in the experiment with LXFL 529 and with DLD-1 was > 100 µM (inactive) in each case.

Take `COc1cc(/C=C/c2ccc(OC(C)=O)cc2)cc(OC)c1OC`: the GI50 was 26.9 µM (inactive) in the experiment on DMS-273; 22.9 µM (inactive) in the experiment with DMS-114; 35.1 µM (inactive) in the experiment with SNB-78; 11.6 µM (inactive) with RXF 631; 55.3 µM (inactive) with HOP-18; 29.3 µM (inactive) in the experiment on LXFL 529. For the same compound, in the experiment with DLD-1, the GI50 is 32.3 µM (inactive).

On to `COc1cc(/C=C\c2ccccc2)cc(OC)c1OC`, for which the GI50 in the experiment with DMS-273 was 1.24 µM (inactive); in the experiment with DMS-114 it was 3.06 µM (inactive); in the experiment on XF498, 3.9 µM (inactive); in the experiment with SNB-78 it was 7.83 µM (inactive); with RXF 631, 8.87 µM (inactive); in the experiment on HOP-18, > 36.8 µM (inactive). In addition, the GI50 with LXFL 529 was 6.56 µM (inactive); with DLD-1, 3.19 µM (inactive).
